According to patent US11053204B2, “Pyrimidinyloxy benzene derivatives as herbicides” (FMC Corporation, priority 2015, dated 2021):

Legend:
Assay type in all cases: in vivo
[1] = test system: barnyardgrass (Echinochloa crus-galli); test: Test B flooded paddy test, plant response rating; settings: 250 g ai/ha; Flood; scale of 0 to 100 where 0 is no effect and 100 is complete control; 13 to 15 days
Method in brief: (§1)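 Greenhouse pots flooded to 3 cm above soil at time of treatment received compound via the water, which stayed at that level.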

[2] = test system: ducksalad (Heteranthera limosa); test: Test B flooded paddy test, plant response rating; settings: 250 g ai/ha; Flood; scale of 0 to 100 where 0 is no effect and 100 is complete control; 13 to 15 days
Method in brief: as §1

[3] = test system: rice (Oryza sativa); test: Test B flooded paddy test, plant response rating; settings: 250 g ai/ha; Flood; scale of 0 to 100 where 0 is no effect and 100 is complete control; 13 to 15 days
Method in brief: as §1

[4] = test system: sedge, umbrella (small-flower umbrella sedge, Cyperus difformis); test: Test B flooded paddy test, plant response rating; settings: 250 g ai/ha; Flood; scale of 0 to 100 where 0 is no effect and 100 is complete control; 13 to 15 days
Method in brief: as §1

[5] = test system: blackgrass (Alopecurus myosuroides); test: Test C preemergence, plant response rating; settings: Preemergence
Method in brief: (§2)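 Greenhouse plants rated visually against untreated controls 13–15 d after treatment, scale 0 = no effect to 100 = complete control. Postemergence sprays went onto potted plants 2–18 cm tall (1–4 leaves); preemergence sprays onto soil freshly sown in loam–sand or silt loam, chemicals formulated in non-phytotoxic solvent with surfactant.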

[6] = test system: corn (Zea mays); test: Test C preemergence, plant response rating; settings: Preemergence
Method in brief: as §2

[7] = test system: crabgrass, large (large crabgrass, Digitaria sanguinalis); test: Test C preemergence, plant response rating; settings: Preemergence
Method in brief: as §2

[8] = test system: foxtail, giant (giant foxtail, Setaria faberii); test: Test C preemergence, plant response rating; settings: Preemergence
Method in brief: as §2

[9] = test system: lambsquarters (Chenopodium album); test: Test C preemergence, plant response rating; settings: Preemergence
Method in brief: as §2

[10] = test system: morningglory (Ipomoea coccinea); test: Test C preemergence, plant response rating; settings: Preemergence
Method in brief: as §2

[11] = test system: nutsedge, yellow (yellow nutsedge, Cyperus esculentus); test: Test C preemergence, plant response rating; settings: Preemergence
Method in brief: as §2

[12] = test system: oilseed rape (Brassica napus); test: Test C preemergence, plant response rating; settings: Preemergence
Method in brief: as §2

[13] = test system: ragweed (common ragweed, Ambrosia elatior); test: Test C preemergence, plant response rating; settings: Preemergence
Method in brief: as §2

[14] = test system: ryegrass, Italian (Italian ryegrass, Lolium multiflorum); test: Test C preemergence, plant response rating; settings: Preemergence
Method in brief: as §2

[15] = test system: soybean (Glycine max); test: Test C preemergence, plant response rating; settings: Preemergence
Method in brief: as §2

[16] = test system: velvetleaf (Abutilon theophrasti); test: Test C preemergence, plant response rating; settings: Preemergence
Method in brief: as §2

[17] = test system: waterhemp (common waterhemp, Amaranthus rudis); test: Test C preemergence, plant response rating; settings: Preemergence
Method in brief: as §2

[18] = test system: wheat (winter wheat, Triticum aestivum); test: Test C preemergence, plant response rating; settings: Preemergence
Method in brief: as §2

[19] = test system: chickweed (common chickweed, Stellaria media); test: Test C postemergence, plant response rating; settings: for Chickweed plant response rating: scale 0 to 100 (0 no effect, 100 complete control)
Method in brief: as §2

[20] = test system: foxtail, giant (giant foxtail, Setaria faberii); test: Test C postemergence, plant response rating; settings: for Foxtail, Giant plant response rating: scale 0 to 100 (0 no effect, 100 complete control)
Method in brief: as §2

[21] = test system: morningglory (Ipomoea coccinea); test: Test C postemergence, plant response rating; settings: for Morningglory plant response rating: scale 0 to 100 (0 no effect, 100 complete control)
Method in brief: as §2

For O=C(CCCC(F)(F)F)c1c(Br)cccc1Oc1ncc(Cl)cn1 [Compound 77], the “Plant response rating, Barnyardgrass” value [1] was 15, the “Plant response rating, Ducksalad” value [2] was 85 and the “Plant response rating, Rice” value [3] was 0. The “Plant response rating, Sedge, Umbrella” value [4] was 100, the “Plant response rating, Blackgrass” value ([5]; 62 g ai/ha, scale of 0 to 100) was 90 and the “Plant response rating, Blackgrass” value ([5]; 125 g ai/ha, scale of 0 to 100) was 100. For the same compound, the “Plant response rating, Blackgrass” value ([5]; 16 g ai/ha, scale 0 to 100) was 5, the “Plant response rating, Blackgrass” value ([5]; 31 g ai/ha, scale 0 to 100) was 15 and the “Plant response rating, Corn” value ([6]; 62 g ai/ha, scale of 0 to 100) was 20. The “Plant response rating, Corn” value ([6]; 125 g ai/ha, scale of 0 to 100) was 35, the “Plant response rating, Corn” value ([6]; 16 g ai/ha, scale 0 to 100) was 0 and the “Plant response rating, Corn” value ([6]; 31 g ai/ha, scale 0 to 100) was 15. For the same compound, the “Plant response rating, Crabgrass, Large” value ([7]; 62 g ai/ha, scale of 0 to 100) was 100, the “Plant response rating, Crabgrass, Large” value ([7]; 125 g ai/ha, scale of 0 to 100) was 100 and the “Plant response rating, Crabgrass, Large” value ([7]; 16 g ai/ha, scale 0 to 100) was 98. For the same compound, the “Plant response rating, Crabgrass, Large” value ([7]; 31 g ai/ha, scale 0 to 100) was 100, the “Plant response rating, Foxtail, Giant” value ([8]; 62 g ai/ha, scale of 0 to 100) was 100 and the “Plant response rating, Foxtail, Giant” value ([8]; 125 g ai/ha, scale of 0 to 100) was 100. The “Plant response rating, Foxtail, Giant” value ([8]; 16 g ai/ha, scale 0 to 100) was 95, the “Plant response rating, Foxtail, Giant” value ([8]; 31 g ai/ha, scale 0 to 100) was 100 and the “Plant response rating, Lambsquarters” value ([9]; 125 g ai/ha, scale of 0 to 100) was 98. The “Plant response rating, Lambsquarters” value ([9]; 16 g ai/ha, scale 0 to 100) was 50, the “Plant response rating, Lambsquarters” value ([9]; 31 g ai/ha, scale 0 to 100) was 60 and the “Plant response rating, Lambsquarters” value ([9]; 62 g ai/ha, scale 0 to 100) was 100. For the same compound, the “Plant response rating, Morningglory” value ([10]; 125 g ai/ha, scale of 0 to 100) was 65, the “Plant response rating, Morningglory” value ([10]; 16 g ai/ha, scale 0 to 100) was 10 and the “Plant response rating, Morningglory” value ([10]; 31 g ai/ha, scale 0 to 100) was 20. For the same compound, the “Plant response rating, Morningglory” value ([10]; 62 g ai/ha, scale 0 to 100) was 35, the “Plant response rating, Nutsedge, Yellow” value ([11]; 125 g ai/ha, scale of 0 to 100) was 30 and the “Plant response rating, Nutsedge, Yellow” value ([11]; 16 g ai/ha, scale 0 to 100) was 0. For the same compound, the “Plant response rating, Nutsedge, Yellow” value ([11]; 31 g ai/ha, scale 0 to 100) was 0, the “Plant response rating, Nutsedge, Yellow” value ([11]; 62 g ai/ha, scale 0 to 100) was 0 and the “Plant response rating, Oilseed Rape” value ([12]; 125 g ai/ha, scale of 0 to 100) was 100. For the same compound, the “Plant response rating, Oilseed Rape” value ([12]; 16 g ai/ha, scale 0 to 100) was 0, the “Plant response rating, Oilseed Rape” value ([12]; 31 g ai/ha, scale 0 to 100) was 55 and the “Plant response rating, Oilseed Rape” value ([12]; 62 g ai/ha, scale 0 to 100) was 100. For the same compound, the “Plant response rating, Ragweed” value ([13]; 125 g ai/ha, scale of 0 to 100) was 45, the “Plant response rating, Ragweed” value ([13]; 16 g ai/ha, scale 0 to 100) was 0 and the “Plant response rating, Ragweed” value ([13]; 31 g ai/ha, scale 0 to 100) was 0. For the same compound, the “Plant response rating, Ragweed” value ([13]; 62 g ai/ha, scale 0 to 100) was 40, the “Plant response rating, Ryegrass, Italian” value ([14]; 125 g ai/ha, scale of 0 to 100) was 90 and the “Plant response rating, Ryegrass, Italian” value ([14]; 16 g ai/ha, scale 0 to 100) was 0. For the same compound, the “Plant response rating, Ryegrass, Italian” value ([14]; 31 g ai/ha, scale 0 to 100) was 30, the “Plant response rating, Ryegrass, Italian” value ([14]; 62 g ai/ha, scale 0 to 100) was 35 and the “Plant response rating, Soybean” value ([15]; 125 g ai/ha, scale of 0 to 100) was 25. For the same compound, the “Plant response rating, Soybean” value ([15]; 16 g ai/ha, scale 0 to 100) was 5, the “Plant response rating, Soybean” value ([15]; 31 g ai/ha, scale 0 to 100) was 5 and the “Plant response rating, Soybean” value ([15]; 62 g ai/ha, scale 0 to 100) was 15. The “Plant response rating, Velvetleaf” value ([16]; 125 g ai/ha, scale of 0 to 100) was 100, the “Plant response rating, Velvetleaf” value ([16]; 16 g ai/ha, scale 0 to 100) was 10 and the “Plant response rating, Velvetleaf” value ([16]; 31 g ai/ha, scale 0 to 100) was 30. The “Plant response rating, Velvetleaf” value ([16]; 62 g ai/ha, scale 0 to 100) was 70, the “Plant response rating, Waterhemp” value ([17]; 125 g ai/ha, scale of 0 to 100) was 100 and the “Plant response rating, Waterhemp” value ([17]; 16 g ai/ha, scale 0 to 100) was 95. The “Plant response rating, Waterhemp” value ([17]; 31 g ai/ha, scale 0 to 100) was 100, the “Plant response rating, Waterhemp” value ([17]; 62 g ai/ha, scale 0 to 100) was 100 and the “Plant response rating, Wheat” value ([18]; 125 g ai/ha, scale of 0 to 100) was 0. For the same compound, the “Plant response rating, Wheat” value ([18]; 16 g ai/ha, scale 0 to 100) was 0, the “Plant response rating, Wheat” value ([18]; 31 g ai/ha, scale 0 to 100) was 0 and the “Plant response rating, Wheat” value ([18]; 62 g ai/ha, scale 0 to 100) was 0. The “Plant response rating, Chickweed” value ([19]; 16 g ai/ha, scale of 0 to 100) was 80, the “Plant response rating, Chickweed” value ([19]; 31 g ai/ha, scale 0 to 100) was 80 and the “Chickweed plant response rating” value ([19]; 62 g ai/ha) was 100. For the same compound, the “Chickweed plant response rating” value ([19]; 125 g ai/ha) was 100, the “Plant response rating, Foxtail, Giant” value ([20]; 16 g ai/ha, scale of 0 to 100) was 10 and the “Plant response rating, Foxtail, Giant” value ([20]; 31 g ai/ha, scale 0 to 100) was 20. For the same compound, the “Foxtail, Giant plant response rating” value ([20]; 62 g ai/ha) was 25, the “Foxtail, Giant plant response rating” value ([20]; 125 g ai/ha) was 70 and the “Plant response rating, Morningglory” value ([21]; 16 g ai/ha, scale of 0 to 100) was 50. The “Plant response rating, Morningglory” value ([21]; 31 g ai/ha, scale 0 to 100) was 85, the “Morningglory plant response rating” value ([21]; 62 g ai/ha) was 90 and the “Morningglory plant response rating” value ([21]; 125 g ai/ha) was 80.
